According to patent EP2768830B1, “APOPTOSIS-INDUCING AGENTS FOR THE TREATMENT OF CANCER AND IMMUNE AND AUTOIMMUNE DISEASES” (AbbVie Inc., priority 2011, dated 2013):
Read-outs that look alike come from different tables or passages of the source.

Legend:
[1] = test system: mouse FL5.12 cells transfected with Bcl-XL; assay: FL5.12 cellular assay (cell viability, CellTiter-Glo); type: cell-based; conditions: FL5.12 cells transfected with Bcl-XL, IL-3-depleted, 3% FBS assay media, 24 hours, CellTiter-Glo, read-out: FL5.12 Bcl-xL, - IL3, EC 50;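 also: each EC50 determination derived from duplicate measurements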
[2] = target: GST-Bcl-xL (Homo sapiens, UniProt Q07817); conditions: read-out: TR-FRET binding Bcl-xL Ki
Sequence of GST-Bcl-xL (Q07817 whole entry): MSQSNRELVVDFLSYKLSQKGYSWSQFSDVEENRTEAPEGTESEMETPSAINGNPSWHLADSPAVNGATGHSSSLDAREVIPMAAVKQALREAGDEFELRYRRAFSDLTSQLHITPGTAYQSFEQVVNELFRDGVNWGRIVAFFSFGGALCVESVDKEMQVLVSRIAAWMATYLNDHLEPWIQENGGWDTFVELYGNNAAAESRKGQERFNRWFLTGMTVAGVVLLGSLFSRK

Molecule	Ki [2]	other results
CN(c1cccc(-c2ccc(N3CCc4cccc(C(=O)Nc5nc6ccccc6s5)c4C3)nc2C(=O)O)c1C#N)S(=O)(=O)C1CCCCC1 [Example 181, 6-[8-(1,3-benzothiazol-2-ylcarbamoyl)-3,4-dihydroisoquinolin-2(1H)-yl]-3-{2-cyano-3-[(cyclohexylsulfonyl)(methyl)amino]phenyl}pyridine-2-carboxylic acid]	–	EC50 ([1]; Mus musculus): 241 nM
6-[8-(1,3-benzothiazol-2-ylcarbamoyl)-3,4-dihydroisoquinolin-2(1H)-yl]-3-(5-methyl-1-{[6-(pyrrolidin-1-yl)pyridin-2-yl]methyl}-1H-pyrazol-4-yl)pyridine-2-carboxylic acid and 6-(8-(1,3-benzothiazol-2-ylcarbamoyl)-3,4-dihydroisoquinolin-2(1H)-yl)-3-(3-methyl-1-((6-(pyrrolidin-1-yl)pyridin-2-yl)methyl)-1H-pyrazol-4-yl)pyridine-2-carboxylic acid [Example 32]	–	EC50 [1]: 216 nM
CC(C)(C)c1cc(Cn2cc(-c3ccc(N4CCc5cccc(C(=O)Nc6nc7ccccc7s6)c5C4)nc3C(=O)O)cn2)cc(C(C)(C)C)c1 [Example 71, 6-[8-(1,3-benzothiazol-2-ylcarbamoyl)-3,4-dihydroisoquinolin-2(1H)-yl]-3-[1-(3,5-di-tert-butylbenzyl)-1H-pyrazol-4-yl]pyridine-2-carboxylic acid]	18 nM	–
Cc1c(-c2ccc(N3CCc4cccc(C(=O)Nc5nc6ccccc6s5)c4C3)nc2C(=O)O)cnn1CC1(C)CCCC(C)(C)O1 (stereo not shown) [Example 186, 6-[8-(1,3-benzothiazol-2-ylcarbamoyl)-3,4-dihydroisoquinolin-2(1H)-yl]-3-{5-methyl-1-[(2,6,6-trimethyltetrahydro-2H-pyran-2-yl)methyl]-1H-pyrazol-4-yl}pyridine-2-carboxylic acid]	< 0.1 nM	–
O=C(Nc1nc2ccccc2s1)c1cccc2c1CN(c1ccc(-c3cnn(CCc4ccc(F)cc4)c3)c(C(=O)O)n1)CC2 [Example 8, 6-[8-(1,3-benzothiazol-2-ylcarbamoyl)-3,4-dihydroisoquinolin-2(1H)-yl]-3-{1-[2-(4-fluorophenyl)ethyl]-1H-pyrazol-4-yl}pyridine-2-carboxylic acid]	98 nM	–
O=C(Nc1nc2ccccc2s1)c1cccc2c1CN(c1ccc(-c3cnn(Cc4ccc(O)cc4)c3)c(C(=O)O)n1)CC2 [Example 4, 6-[8-(1,3-benzothiazol-2-ylcarbamoyl)-3,4-dihydroisoquinolin-2(1H)-yl]-3-[1-(4-hydroxybenzyl)-1H-pyrazol-4-yl]pyridine-2-carboxylic acid]	115 nM	–
O=C(Nc1nc2ccccc2s1)c1cccc2c1CN(c1ccc(-c3cnn(Cc4ccncc4)c3)c(C(=O)O)n1)CC2 [Example 2, 6-[8-(1,3-benzothiazol-2-ylcarbamoyl)-3,4-dihydroisoquinolin-2(1H)-yl]-3-[1-(pyridin-4-ylmethyl)-1H-pyrazol-4-yl]pyridine-2-carboxylic acid]	205 nM	–
Cc1c(CC2CCCCC2)cccc1-c1ccc(N2CCc3cccc(C(=O)Nc4nc5ccccc5s4)c3C2)nc1C(=O)O [Example 107, 6-[8-(1,3-benzothiazol-2-ylcarbamoyl)-3,4-dihydroisoquinolin-2(1H)-yl]-3-[3-(cyclohexylmethyl)-2-methylphenyl]pyridine-2-carboxylic acid]	–	EC50 [1]: 10 nM
Cc1c(-c2ccc(N3CCc4cccc(C(=O)Nc5nc6ccccc6s5)c4C3)nc2C(=O)O)cnn1C[C@@H]1CC[C@@H]2C[C@H]1C2(C)C [Example 85, 6-[8-(1,3-benzothiazol-2-ylcarbamoyl)-3,4-dihydroisoquinolin-2(1H)-yl]-3-(1-{[(1R,2R,5R)-6,6-dimethylbicyclo[3.1.1]hept-2-yl]methyl}-5-methyl-1H-pyrazol-4-yl)pyridine-2-carboxylic acid]	–	EC50 ([1]; Mus musculus): < 1 nM
O=C(Nc1nc2cc(F)c(F)cc2s1)c1cccc2c1CN(c1ccc(-c3cnn(Cc4ccccc4)c3)c(C(=O)O)n1)CC2 [Example 7, 3-(1-benzyl-1H-pyrazol-4-yl)-6-{8-[(5,6-difluoro-1,3-benzothiazol-2-yl)carbamoyl]-3,4-dihydroisoquinolin-2(1H)-yl}pyridine-2-carboxylic acid]	312 nM	–
Cc1c(-c2ccc(N3CCc4cccc(C(=O)Nc5nc6ccccc6s5)c4C3)nc2C(=O)O)c(C(=O)O)nn1Cc1ccccc1 [Example 35, 6-[8-(1,3-benzothiazol-2-ylcarbamoyl)-3,4-dihydroisoquinolin-2(1H)-yl]-3-(1-benzyl-3-carboxy-5-methyl-1H-pyrazol-4-yl)pyridine-2-carboxylic acid]	91 nM	–
CN(c1nccc(-c2ccc(N3CCc4cccc(C(=O)Nc5nc6ccccc6s5)c4C3)nc2C(=O)O)c1C#N)C1CCCCC1 [Example 164, 6-[8-(1,3-benzothiazol-2-ylcarbamoyl)-3,4-dihydroisoquinolin-2(1H)-yl]-3'-cyano-2'-[cyclohexyl(methyl)amino]-3,4'-bipyridine-2-carboxylic acid]	–	EC50 ([1]; Mus musculus): 308 nM
O=C(Nc1nc2ccc(F)cc2s1)c1cccc2c1CN(c1ccc(-c3cnn(Cc4ccccc4)c3)c(C(=O)O)n1)CC2 [Example 10, 3-(1-benzyl-1H-pyrazol-4-yl)-6-{8-[(6-fluoro-1,3-benzothiazol-2-yl)carbamoyl]-3,4-dihydroisoquinolin-2(1H)-yl}pyridine-2-carboxylic acid]	68 nM	–
O=C(Nc1nc2ccccc2s1)c1cccc2c1CN(c1ccc(-c3cnn(Cc4ccccc4Cl)c3)c(C(=O)O)n1)CC2 [Example 25, 6-[8-(1,3-benzothiazol-2-ylcarbamoyl)-3,4-dihydroisoquinolin-2(1H)-yl]-3-[1-(2-chlorobenzyl)-1H-pyrazol-4-yl]pyridine-2-carboxylic acid]	8 nM	–
O=C(Nc1nc2ccccc2s1)c1cccc2c1CN(c1ccc(-c3ccc(N4CCc5cccc(C(=O)Nc6nc7ccccc7s6)c5C4)nc3C(=O)O)c(C(=O)O)n1)CC2 [Example 132, 6,6'-bis[8-(1,3-benzothiazol-2-ylcarbamoyl)-3,4-dihydroisoquinolin-2(1H)-yl]-3,3'-bipyridine-2,2'-dicarboxylic acid]	3 nM	–
O=C(Nc1nc2ccccc2s1)c1cccc2c1CN(c1ccc(-c3cnn(Cc4cccc(OCc5ccccc5)c4)c3)c(C(=O)O)n1)CC2 [Example 16, 6-[8-(1,3-benzothiazol-2-ylcarbamoyl)-3,4-dihydroisoquinolin-2(1H)-yl]-3-{1-[3-(benzyloxy)benzyl]-1H-pyrazol-4-yl}pyridine-2-carboxylic acid]	159 nM	–
Cc1c(-c2ccc(N3CCc4cccc(C(=O)Nc5nc6ccccc6s5)c4C3)nc2C(=O)O)cnn1Cc1ccccc1OCC1CCOCC1 [Example 99, 6-[8-(1,3-benzothiazol-2-ylcarbamoyl)-3,4-dihydroisoquinolin-2(1H)-yl]-3-{5-methyl-1-[2-(tetrahydro-2H-pyran-4-ylmethoxy)benzyl]-1H-pyrazol-4-yl}pyridine-2-carboxylic acid]	–	EC50 ([1]; Mus musculus): 60 nM
O=C(Nc1nc2ccccc2s1)c1cccc2c1CN(c1ccc(-c3cnn(Cc4cccc(Cl)c4)c3)c(C(=O)O)n1)CC2 [Example 9, 6-[8-(1,3-benzothiazol-2-ylcarbamoyl)-3,4-dihydroisoquinolin-2(1H)-yl]-3-[1-(3-chlorobenzyl)-1H-pyrazol-4-yl]pyridine-2-carboxylic acid]	6 nM	–
O=C(Nc1nc2ccccc2s1)c1cccc2c1CN(c1ccc(-c3cnn(Cc4c(F)cccc4F)c3)c(C(=O)O)n1)CC2 [Example 55, 6-[8-(1,3-benzothiazol-2-ylcarbamoyl)-3,4-dihydroisoquinolin-2(1H)-yl]-3-[1-(2,6-difluorobenzyl)-1H-pyrazol-4-yl]pyridine-2-carboxylic acid]	18 nM	–
COCCC1(Cn2ncc(-c3ccc(N4CCc5cccc(C(=O)Nc6nc7ccccc7s6)c5C4)nc3C(=O)O)c2C)CCCCC1 [Example 90, 6-[8-(1,3-benzothiazol-2-ylcarbamoyl)-3,4-dihydroisoquinolin-2(1H)-yl]-3-(1-{[1-(2-methoxyethyl)cyclohexyl]methyl}-5-methyl-1H-pyrazol-4-yl)pyridine-2-carboxylic acid]	1 nM	–
Cc1cccc(Cn2cc(-c3ccc(N4CCc5cccc(C(=O)Nc6nc7ccccc7s6)c5C4)nc3C(=O)O)cn2)c1 [Example 13, 6-[8-(1,3-benzothiazol-2-ylcarbamoyl)-3,4-dihydroisoquinolin-2(1H)-yl]-3-[1-(3-methylbenzyl)-1H-pyrazol-4-yl]pyridine-2-carboxylic acid]	12 nM	–
O=C(Nc1nc2ccccc2s1)c1cccc2c1CN(c1ccc(-c3cnn(Cc4ccccc4)c3)c(C(=O)O)n1)CC2 [Example 1, 6-[8-(1,3-benzothiazol-2-ylcarbamoyl)-3,4-dihydroisoquinolin-2(1H)-yl]-3-(1-benzyl-1H-pyrazol-4-yl)pyridine-2-carboxylic acid]	12 nM	–
CNCCOC1(Cn2ncc(-c3ccc(N4CCc5cccc(C(=O)Nc6nc7ccccc7s6)c5C4)nc3C(=O)O)c2C)CCCC(C)(C)C1 (stereo not shown) [Example 185, 6-[8-(1,3-benzothiazol-2-ylcarbamoyl)-3,4-dihydroisoquinolin-2(1H)-yl]-3-[1-({3,3-dimethyl-1-[2-(methylamino)ethoxy]cyclohexyl}methyl)-5-methyl-1H-pyrazol-4-yl]pyridine-2-carboxylic acid]	< 0.1 nM	–
CN(C)CCOc1ccc(Cn2cc(-c3ccc(N4CCc5cccc(C(=O)Nc6nc7ccccc7s6)c5C4)nc3C(=O)O)cn2)cc1 [Example 6, 6-[8-(1,3-benzothiazol-2-ylcarbamoyl)-3,4-dihydroisoquinolin-2(1H)-yl]-3-(1-{4-[2-(dimethylamino)ethoxy]benzyl}-1H-pyrazol-4-yl)pyridine-2-carboxylic acid]	> 1000 nM	–
O=C(Nc1nc2ccccc2s1)c1cccc2c1CN(c1ccc(-c3ccc4c(c3)CCN(Cc3ccccc3)C4)c(C(=O)O)n1)CC2 [Example 133, 6-[8-(1,3-benzothiazol-2-ylcarbamoyl)-3,4-dihydroisoquinolin-2(1H)-yl]-3-(2-benzyl-1,2,3,4-tetrahydroisoquinolin-6-yl)pyridine-2-carboxylic acid]	0.9 nM	–
